In PMC13626057, “Sensitizing tumor response to topoisomerase I antibody-drug conjugate by selective CDK7 inhibition” (Science Advances, 2026):
Read-outs that look alike come from different tables or passages of the source.

What was measured:
H292 xenograft = assay: H292 cell line-derived xenograft efficacy; assay type: in vivo, BALB/c nude mice; settings: for tumor growth inhibition (TGI): by day 28
Protocol: BALB/c nude mice were purchased from the Shanghai SIPPR/BK Laboratory Animal Co. Ltd. (Shanghai, China). For in vivo efficacy studies, HCT116 cells or H292 cells were resuspended in PBS and Matrigel (1:1) and implanted subcutaneously. When tumors reached an average size of 117 mm^3 (HCT116) or 140 mm^3 (H292), mice were randomized into four groups (n = 8 per group) and treated with Q901 (3 or 10 mg/kg, intraperitoneally once daily), T-DXd (10 mg/kg, single intravenous administration on day 0), SG (3 mg/kg, single intravenous administration on days 1 and 8), or a combination thereof. Tumor volumes were measured twice weekly after randomization in two dimensions, using a caliper. The TGI was calculated for each group using the formula: TGI (%) = [1 − (Ti − T0)/(Vi − V0)] × 100, where Ti is the average tumor volume of the treatment group on the given day, T0 is the average tumor volume of the treatment group on the day when the treatment was started, Vi is the average tumor volume of the vehicle control group on the same day with Ti, and V0 is the average tumor volume of the vehicle group on the day of treatment start. Statistical significance was calculated using a two-way analysis of variance (ANOVA) followed by Tukey’s multiple comparison test in GraphPad Prism 10.4.1.

H292 cells = assay: H292 cell viability, single agent and combination (SynergyFinder, ATP Lite); assay type: cell-based; settings: 72 hours
Protocol: (§1) SynergyFinder was performed by Oncolines (Oss, Netherlands). […] The absolute IC5_0 values were determined from the dose-response curves generated in XL-fit 5 using the four-parameter logistic equation: fit = A + ((B − A)/{1 + [(C/x)^D]}), where A and B represent the bottom and top plateaus of the curve, C is the IC5_0 value, x is the compound concentration, and D is the Hill slope.

CDK13 = biological target: T1, CDK13 (Homo sapiens, UniProt Q14004); assay: Radiometric 28 CDK titration assay; assay type: biochemical
T1 construct: purchased Reaction Biology (Freiburg, Germany), assay service
Protocol: (§2) A radiometric protein kinase assay service was provided by Reaction Biology (Freiburg, Germany) to measure the kinase activity of 410 protein kinases and 28 CDKs.
(§3) In the 28 CDK titration assay, the residual activity and IC50 values of the compound were calculated using the Quattro Workflow V3.1.1 (Quattro Research GmbH, Munich, Germany). The ATP concentration used in each kinase reaction was set to the apparent ATP-Km value. Dose-response curve fitting was performed using a four-parameter logistic regression model in GraphPad Prism 10.4.1 (GraphPad Software, Boston, MA, USA).

CDK12 = biological target: T2, CDK12 (Homo sapiens, UniProt Q9NYV4); assay: Radiometric 28 CDK titration assay; assay type: biochemical
T2 construct: purchased Reaction Biology (Freiburg, Germany), assay service
Protocol: as §2, §3

CDK9 = biological target: T3, CDK9 (Homo sapiens, UniProt P50750); assay: Radiometric 28 CDK titration assay; assay type: biochemical
T3 construct: purchased Reaction Biology (Freiburg, Germany), assay service
Protocol: as §2, §3

CDK8 = biological target: T4, CDK8 (Homo sapiens, UniProt P49336); assay: Radiometric 28 CDK titration assay; assay type: biochemical
T4 construct: purchased Reaction Biology (Freiburg, Germany), assay service
Protocol: as §2, §3

HCT116 xenograft = assay: HCT116 cell line-derived xenograft efficacy; assay type: in vivo, BALB/c nude mice; settings: by day 28; T-DXd 10 mg/kg single iv, Q901 10 mg/kg ip once daily
Protocol: BALB/c nude mice were purchased from the Shanghai SIPPR/BK Laboratory Animal Co. Ltd. (Shanghai, China). For in vivo efficacy studies, HCT116 cells or H292 cells were resuspended in PBS and Matrigel (1:1) and implanted subcutaneously. […] Tumor volumes were measured twice weekly after randomization in two dimensions, using a caliper. The TGI was calculated for each group using the formula: TGI (%) = [1 − (Ti − T0)/(Vi − V0)] × 100, where Ti is the average tumor volume of the treatment group on the given day, T0 is the average tumor volume of the treatment group on the day when the treatment was started, Vi is the average tumor volume of the vehicle control group on the same day with Ti, and V0 is the average tumor volume of the vehicle group on the day of treatment start. Statistical significance was calculated using a two-way analysis of variance (ANOVA) followed by Tukey’s multiple comparison test in GraphPad Prism 10.4.1.

CDK7 = biological target: T5, CDK7 (Homo sapiens, UniProt P50613); assay: Radiometric protein kinase assay (PanQinase; 410-kinase panel and 28 CDK titration); assay type: biochemical; settings: ATP at apparent ATP-Km
T5 construct: purchased Reaction Biology (Freiburg, Germany), assay service
Protocol: as §2
In the kinase inhibition assay, the residual activity for each compound was calculated using the following formula: Residual activity (%) = 100 × [(signal of compound − low control)/(high control − low control)]. The selectivity score of the compound at the tested concentrations was calculated for residual activity < 50%, that is, inhibition of >50%. The selectivity score for a particular compound at a particular concentration was calculated using the following formula: Selectivity score = (count of data points < 50%)/(total number of data points).
as §3

HCT116 cells = assay: HCT116 cell viability, single agent and combination (SynergyFinder, ATP Lite); assay type: cell-based; settings: Homo sapiens, HCT-116; 72 hours, alone
Protocol: as §1

[1] = biological target: T6, recombinant CDK7/cyclin H/MAT1 (CAK) trimeric complex (Homo sapiens, UniProt P50613); assay: Covalent binding site evaluation by mass spectrometry; settings: incubated 1 hour with CAK complex, Arg-C or Arg-C/trypsin digestion
T6 construct: purchased Thermo Fisher Scientific PV3868
Protocol: The recombinant CAK complex (CDK7/cyclin H/MAT1; Thermo Fisher Scientific, PV3868) was incubated with Q901 or DMSO for 1 hour at room temperature (RT), and the reaction complexes were resolved by SDS–polyacrylamide gel electrophoresis (PAGE). The bands corresponding to CDK7 were excised for in-gel digestion. Denaturation, reduction, and alkylation were performed using 8 M urea, TCEP, and iodoacetamide at RT, followed by Arg-C digestion (1:100 Arg-C:protein ratio, at 37°C for 18 hours) and Arg-C/trypsin digestion (1:100 Arg-C:protein ratio and 1:50 trypsin:protein ratio, at 37°C for 18 hours). The extracted peptides were loaded and eluted using a high-performance liquid chromatography (HPLC) system and then separated through a linear gradient (3 to 60% mobile phase B in 120 min) at a flow rate of 0.3 μl/min using EASY-Spray HPLC Columns (75 μm/500 mm) (Thermo Fisher Scientific, ES903) at 40°C and introduced into an Orbitrap Exploris 240 LC-MS/MS System (Thermo Fisher Scientific, BRE725535) in positive ion mode and run in data-independent acquisition (DIA) mode. Data acquisition was performed over a mass/charge ratio (m/z) range of 390 to 1010, and peak integrations for fragment ions of the most intense charge state of the doubly carbamidomethylated Cys^312-containing peptide were analyzed using the Skyline software 24.1 (Seattle, WA, USA). […]

MCF-7 cells = assay: MCF-7 cell viability (ATP Lite system); assay type: cell-based; settings: Homo sapiens, MCF7, read-out: IC50 MCF-7 cell growth
Protocol: Fig. 2. Q901 alters RNAPII phosphorylation and transcriptional activity. (A) MCF-7 cells were treated with Q901 at the indicated concentrations for 72, 96, or 120 hours. Cell viability was measured using the ATP Lite system. Inhibition (%) was plotted against the log-transformed Q901 concentration (μM) (n = 3 to 4). Data represent means ± SD. (B and C) RNAPII ChIP-seq was performed following treatment with 100 nM Q901 for the indicated duration. (B) Volcano plot of pan RNAPII ChIP-seq signals after Q901 treatment [n = 2; blue dot indicates P value ≤ 0.05 and log2 fold change (log2FC) ≤ −0.58; red dot indicates P value ≤ 0.05 and log2FC ≥ 0.58]. […] CDK7 ChIP-seq was performed with 100 nM Q901 for the indicated durations.
Cells were seeded into 96-well plates and treated with compounds at the indicated concentrations and time points. After incubation, cell viability was measured using either CellTiter-Glo luminescent cell viability assay (Promega, Madison, WI, USA, G7572) according to the manufacturer’s instructions. Plates were equilibrated to RT for 30 min before adding 50 μl of CellTiter-Glo reagent to each well. Luminescence was measured using the EnVision Multi Label Reader (PerkinElmer, Waltham, MA, USA). Dose-response curves were fitted using a nonlinear regression model with a sigmoidal dose-response function in GraphPad Prism 10.4.1. The absolute IC5_0 values were calculated using the dose-response curves generated in XL-fit 5 (IDBS Software, Woking, UK) and fitted with the four-parameter logistic equation: fit = A + ((B − A)/{1 + [(C/x)^D]}), where A and B represent the bottom and top plateaus of the curve, respectively, C is the IC5_0 value, x is the compound concentration, and D is the Hill slope.

[2] = biological target: T7, recombinant human CDK7/cyclin H/MNAT1 (Homo sapiens, UniProt P50613); assay: LANCE Ultra TR-FRET CDK7 kinase assay (cell-free enzymatic assay); assay type: biochemical; settings: eight-point dilution, top 3000 nM, read-out: IC50 against CDK7
T7 construct: His-tag; purchased Invitrogen PR6749B
Protocol: CDK7 kinase activity was measured using a LANCE Ultra TR-FRET kinase assay (Revvity, formerly PerkinElmer, Waltham, MA, USA) according to the manufacturer’s protocol. Briefly, recombinant human CDK7/cyclin H/MNAT1 His-tag protein (Invitrogen, PR6749B) was incubated with compounds (Q901, Q901R, and QS0551508) in kinase buffer in a 384-well format. The assay used a ULight-labeled peptide substrate and a europium-labeled anti-phospho antibody for time-resolved fluorescence resonance energy transfer (TR-FRET) detection.
TR-FRET signals were measured using an EnVision multimode plate reader (Revvity, EnVision 2105 Alpha) with LANCE/DELFIA detection settings.
Compounds were tested using an eight-point serial dilution (top concentration: 3000 nM, 1:4 dilution). Signals were normalized to DMSO-treated controls to calculate residual kinase activity (%), and dose-response curves were generated using GraphPad Prism 10.4.1.

other CDKs = assay: Radiometric 28 CDK titration assay, selectivity over other CDKs; assay type: biochemical; settings: ranging from 242-fold to over 1000-fold
Protocol: as §2, §3

[3] = first regimen: SG 3 mg/kg, Q901 10 mg/kg
[4] = second regimen: SG 10 mg/kg, Q901 3 mg/kg

T5 sequence (P50613 whole entry): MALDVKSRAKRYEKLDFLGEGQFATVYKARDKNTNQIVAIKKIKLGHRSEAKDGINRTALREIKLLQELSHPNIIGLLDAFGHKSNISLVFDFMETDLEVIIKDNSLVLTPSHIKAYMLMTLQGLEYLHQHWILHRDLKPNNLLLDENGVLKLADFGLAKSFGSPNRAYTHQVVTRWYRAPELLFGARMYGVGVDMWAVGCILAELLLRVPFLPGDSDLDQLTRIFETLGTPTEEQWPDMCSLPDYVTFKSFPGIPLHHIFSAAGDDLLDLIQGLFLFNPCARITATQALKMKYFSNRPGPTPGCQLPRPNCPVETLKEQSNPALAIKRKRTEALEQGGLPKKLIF
T5 sequence (P51946 whole entry partner): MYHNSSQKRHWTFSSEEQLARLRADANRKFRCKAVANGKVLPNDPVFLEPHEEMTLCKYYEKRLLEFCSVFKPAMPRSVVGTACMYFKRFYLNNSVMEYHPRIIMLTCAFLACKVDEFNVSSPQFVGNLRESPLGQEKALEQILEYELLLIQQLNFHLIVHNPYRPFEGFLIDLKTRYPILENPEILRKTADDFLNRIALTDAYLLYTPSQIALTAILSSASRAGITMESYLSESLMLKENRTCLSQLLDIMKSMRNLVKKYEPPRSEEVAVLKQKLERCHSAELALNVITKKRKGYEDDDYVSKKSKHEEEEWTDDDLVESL
T5 sequence (P51948 whole entry partner): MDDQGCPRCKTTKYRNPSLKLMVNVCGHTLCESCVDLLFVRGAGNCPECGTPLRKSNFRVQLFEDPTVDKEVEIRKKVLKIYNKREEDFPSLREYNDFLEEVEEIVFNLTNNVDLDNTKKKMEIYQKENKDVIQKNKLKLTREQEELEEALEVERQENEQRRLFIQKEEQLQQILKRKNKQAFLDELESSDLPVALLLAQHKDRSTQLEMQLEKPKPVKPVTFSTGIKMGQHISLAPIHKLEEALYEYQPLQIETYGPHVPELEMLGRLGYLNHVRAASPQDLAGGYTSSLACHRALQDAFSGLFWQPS
T4 sequence (P49336 whole entry): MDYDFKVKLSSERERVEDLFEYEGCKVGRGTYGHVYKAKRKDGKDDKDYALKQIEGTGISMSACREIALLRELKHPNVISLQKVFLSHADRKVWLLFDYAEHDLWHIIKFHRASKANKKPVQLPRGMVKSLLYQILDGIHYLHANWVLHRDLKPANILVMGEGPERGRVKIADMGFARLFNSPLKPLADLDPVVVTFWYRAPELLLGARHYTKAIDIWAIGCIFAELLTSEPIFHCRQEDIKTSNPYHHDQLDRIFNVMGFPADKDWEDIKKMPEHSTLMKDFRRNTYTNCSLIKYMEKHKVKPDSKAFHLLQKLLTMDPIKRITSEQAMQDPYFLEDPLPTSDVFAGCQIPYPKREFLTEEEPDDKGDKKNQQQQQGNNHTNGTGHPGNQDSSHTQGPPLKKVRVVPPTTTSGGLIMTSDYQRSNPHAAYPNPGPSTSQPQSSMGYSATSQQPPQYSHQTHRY
T4 sequence (P24863 whole entry partner): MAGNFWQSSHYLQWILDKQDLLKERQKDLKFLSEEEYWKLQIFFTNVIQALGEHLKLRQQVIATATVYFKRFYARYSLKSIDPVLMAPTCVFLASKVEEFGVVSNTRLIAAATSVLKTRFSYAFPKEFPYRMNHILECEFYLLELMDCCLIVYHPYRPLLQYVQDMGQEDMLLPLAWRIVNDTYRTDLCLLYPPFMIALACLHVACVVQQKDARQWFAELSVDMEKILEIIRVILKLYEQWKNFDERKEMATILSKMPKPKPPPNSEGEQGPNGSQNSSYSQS
T1 sequence (Q14004 whole entry): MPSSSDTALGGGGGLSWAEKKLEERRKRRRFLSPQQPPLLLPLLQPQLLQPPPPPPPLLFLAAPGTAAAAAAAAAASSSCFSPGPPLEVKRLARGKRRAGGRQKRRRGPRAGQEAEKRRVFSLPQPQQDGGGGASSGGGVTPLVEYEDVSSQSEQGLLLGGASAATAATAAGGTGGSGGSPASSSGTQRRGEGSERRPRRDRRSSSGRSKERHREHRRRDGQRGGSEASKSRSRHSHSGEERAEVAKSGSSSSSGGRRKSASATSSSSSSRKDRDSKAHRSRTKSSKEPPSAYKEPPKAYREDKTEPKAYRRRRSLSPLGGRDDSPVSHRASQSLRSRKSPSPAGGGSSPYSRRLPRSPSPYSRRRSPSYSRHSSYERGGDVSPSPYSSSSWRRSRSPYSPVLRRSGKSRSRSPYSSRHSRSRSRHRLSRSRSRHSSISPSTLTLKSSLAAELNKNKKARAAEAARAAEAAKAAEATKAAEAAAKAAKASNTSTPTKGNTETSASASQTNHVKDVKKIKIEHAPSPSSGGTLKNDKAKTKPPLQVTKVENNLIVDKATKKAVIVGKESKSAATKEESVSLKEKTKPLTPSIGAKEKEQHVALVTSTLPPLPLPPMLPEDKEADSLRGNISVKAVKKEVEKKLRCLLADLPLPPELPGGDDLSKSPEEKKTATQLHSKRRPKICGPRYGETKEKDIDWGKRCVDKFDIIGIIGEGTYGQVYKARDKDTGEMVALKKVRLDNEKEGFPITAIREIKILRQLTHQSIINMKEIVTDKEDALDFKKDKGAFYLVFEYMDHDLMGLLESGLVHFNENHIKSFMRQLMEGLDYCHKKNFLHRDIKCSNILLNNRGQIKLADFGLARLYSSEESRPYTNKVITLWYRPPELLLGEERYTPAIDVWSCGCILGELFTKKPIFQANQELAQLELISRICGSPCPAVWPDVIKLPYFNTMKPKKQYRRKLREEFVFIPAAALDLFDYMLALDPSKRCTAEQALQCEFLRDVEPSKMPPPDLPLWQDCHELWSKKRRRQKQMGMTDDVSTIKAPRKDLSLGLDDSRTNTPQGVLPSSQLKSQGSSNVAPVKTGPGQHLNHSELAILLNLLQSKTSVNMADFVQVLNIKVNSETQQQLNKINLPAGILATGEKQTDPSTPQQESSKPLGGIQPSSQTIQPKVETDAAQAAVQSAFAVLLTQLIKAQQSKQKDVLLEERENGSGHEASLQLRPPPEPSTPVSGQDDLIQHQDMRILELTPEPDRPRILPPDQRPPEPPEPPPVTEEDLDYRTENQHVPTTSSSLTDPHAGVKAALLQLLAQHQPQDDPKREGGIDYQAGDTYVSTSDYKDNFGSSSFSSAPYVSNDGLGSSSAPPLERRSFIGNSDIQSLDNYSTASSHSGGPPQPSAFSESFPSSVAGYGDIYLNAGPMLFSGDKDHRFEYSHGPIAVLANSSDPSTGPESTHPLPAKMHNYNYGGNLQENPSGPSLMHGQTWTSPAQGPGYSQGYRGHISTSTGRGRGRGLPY
T1 sequence (O75909 whole entry partner): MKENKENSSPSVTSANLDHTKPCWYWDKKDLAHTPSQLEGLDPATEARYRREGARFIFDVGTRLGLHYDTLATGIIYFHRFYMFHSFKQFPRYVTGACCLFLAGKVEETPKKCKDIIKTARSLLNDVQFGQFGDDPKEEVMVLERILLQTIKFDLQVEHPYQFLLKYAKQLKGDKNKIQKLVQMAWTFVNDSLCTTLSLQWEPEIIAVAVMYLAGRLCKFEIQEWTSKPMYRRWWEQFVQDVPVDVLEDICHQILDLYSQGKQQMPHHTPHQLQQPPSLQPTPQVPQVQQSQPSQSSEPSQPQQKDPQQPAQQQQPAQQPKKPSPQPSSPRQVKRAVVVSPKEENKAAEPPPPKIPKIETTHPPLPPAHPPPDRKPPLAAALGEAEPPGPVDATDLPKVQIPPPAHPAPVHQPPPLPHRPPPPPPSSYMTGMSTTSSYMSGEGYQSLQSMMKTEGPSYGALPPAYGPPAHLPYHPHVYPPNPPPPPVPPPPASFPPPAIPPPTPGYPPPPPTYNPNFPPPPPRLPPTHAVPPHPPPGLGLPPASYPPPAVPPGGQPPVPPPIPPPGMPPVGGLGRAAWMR
T7 sequence (P50613 whole entry): as the sequence (P50613 whole entry) above
T7 sequence (P51946 whole entry partner): as the sequence (P51946 whole entry partner) above
T7 sequence (P51948 whole entry partner): as the sequence (P51948 whole entry partner) above
T6 sequence (P50613 whole entry): as the sequence (P50613 whole entry) above
T6 sequence (P51946 whole entry partner): as the sequence (P51946 whole entry partner) above
T6 sequence (P51948 whole entry partner): as the sequence (P51948 whole entry partner) above

In the case of sacituzumab govitecan [SG], the “time at which tumors showed regrowth” value (H292 xenograft; H292 xenograft, SG alone) is reported as > 14 days, the “tumor growth inhibition (TGI)” value (H292 xenograft; [3]) is reported as 47% and the “tumor growth inhibition (TGI)” value (H292 xenograft; [4]) is reported as 72%. For the same compound, the “H292 IC50” value (H292 cells; monotherapy) was 0.5 mg/L.
In the case of `C=C(F)C(=O)Nc1ccc2c(-c3ccccc3CNc3nc(NC[C@H]4CCNC[C@@H]4O)nc4c(C(C)C)cnn34)nccc2c1` [Q901], the “fold difference in inhibition of CDK13 compared to CDK7” value (CDK13) is reported as 641 fold, the “fold difference in inhibition of CDK12 compared to CDK7” value (CDK12) is reported as 207 fold and the “fold difference in inhibition of CDK9 compared to CDK7” value (CDK9) is reported as 715 fold. For the same compound, the “fold difference in inhibition of CDK8 compared to CDK7” value (CDK8) was > 1000 fold, the IC50 (CDK8; ATP at apparent ATP-Km) was > 10 µM and the “tumor growth inhibition (TGI)” value (HCT116 xenograft) was 81%. For the same compound, the inhibition at 1 µM (CDK7; 1 μM, 1 hour) was 99%, the remaining activity at 1 µM (CDK7; 1 μM, 1 hour, read-out: residual activity value CDK7) was 1% and the IC50 (CDK7; in vitro) was 0.01 µM. For the same compound, the “tumor growth inhibition (TGI)” value (H292 xenograft; [3]) was 80%, the “tumor growth inhibition (TGI)” value (H292 xenograft; [4]) was 61% and the IC50 (HCT116 cells) was 0.0084 µM. The “reduction of intensity of Cys312-containing peptides (residues 310 to 329 and 310 to 318)” value [1] was ~99%, the IC50 (MCF-7 cells; 72 hours) was 0.095 µM and the IC50 (MCF-7 cells; 96 hours) was 0.016 µM. For the same compound, the IC50 (MCF-7 cells; 120 hours) was 0.005 µM, the IC50 [2] was 0.0104 µM and the “IC50 values for other CDKs higher than that for CDK7” value (other CDKs) was ≥ 242 fold. It also gave an IC50 (H292 cells; Homo sapiens, NCI-H292, Single treatment / monotherapy) of 0.012 µM.
